Results taken from patent US20240344241A1, “PROTEINACEOUS MOLECULES AND USES THEREFOR” (THE UNIVERSITY OF QUEENSLAND, priority 2021, published 2024).
Bridge positions count the residues as written; N and C are the ends. Peptide text beside a SMILES is read from it.

Columns and labels:
[1] = molecular target: T1, bovine trypsin (Bos taurus, UniProt P00760); test: Surface plasmon resonance binding to trypsin; conditions: for affinity for trypsin (in words): SPR
T1 sequence (P00760 24-246): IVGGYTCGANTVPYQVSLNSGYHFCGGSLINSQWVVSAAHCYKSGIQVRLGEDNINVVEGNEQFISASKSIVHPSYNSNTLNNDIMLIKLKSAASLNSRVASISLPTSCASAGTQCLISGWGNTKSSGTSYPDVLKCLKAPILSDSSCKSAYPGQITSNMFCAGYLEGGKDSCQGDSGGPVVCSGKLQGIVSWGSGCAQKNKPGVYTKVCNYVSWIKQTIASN

[2] = molecular target: T2, Human β-FXIIa (Homo sapiens, UniProt P00748); test: FXIIa competitive inhibition assay, colorimetric substrate Ac-QRFR-pNA; assay type: biochemical
T2 construct: Human β-FXIIa was obtained from Molecular Innovations, together with human FXa, human FXIa, human α-thrombin, and human plasma kallikrein; purchased Molecular Innovations; host or cells: purified from human plasma
T2 sequence (P00748 373-615 limits assumed, other chains not shown): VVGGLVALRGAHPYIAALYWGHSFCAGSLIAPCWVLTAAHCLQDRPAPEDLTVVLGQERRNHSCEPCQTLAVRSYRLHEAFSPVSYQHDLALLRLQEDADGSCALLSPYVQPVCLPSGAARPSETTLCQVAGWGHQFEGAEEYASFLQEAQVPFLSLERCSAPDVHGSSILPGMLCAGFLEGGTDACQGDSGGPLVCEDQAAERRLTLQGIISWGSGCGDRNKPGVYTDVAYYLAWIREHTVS
Method: The activity of acyclic and cyclic MCoFx1-5 and analogues thereof was assessed in competitive inhibition assays, as previously described in Swedberg et al. (2016) J Med Chem, 59: 7287-7292. Human β-FXIIa was obtained from Molecular Innovations, together with human FXa, human FXIa, human α-thrombin, and human plasma kallikrein. Human cationic trypsin and human plasmin were obtained from Sigma-Aldrich, and recombinant human matriptase was sourced from R&D Systems. Recombinant human urokinase (uPA) and recombinant human tissue plasminogen activator (tPA) were expressed in Expi293 cells, as previously described in Li et al. (2019) Chembiochem, 20: 46-50. FXIIa inhibition assays were performed in clear, low-binding 96-well plates using 250 μL (final volume) of assay buffer (0.1 M Tris-HCl pH 8.0, 0.1 M NaCl, 10 mM CaCl2 and 0.005% Triton X-100). Inhibitors were serially diluted and incubated with 10 nM FXIIa at room temperature to reach equilibrium. After adding 100 μM Ac-QRFR-pNA substrate (KM=162 μM), enzymatic activity was measured by monitoring release of the pNA moiety using a TECAN infinite M1000 Pro plate reader (A=405 nm, reading interval, 10 s; assay time course, 7 min). Assays were conducted in three times in duplicate. Substrate kinetic constants (Michaelis-Menten) and inhibition constants (Morrison K) were determined by non-linear regression using Prism 7 (GraphPad). Selectivity assays with off-target proteases were performed in a similar way, except that different concentrations of enzyme and substrate were used, as indicated in Table 16. For assays using a fluorescent substrate (peptide-4-methylcoumaryl-7-amide, MCA), black low-binding 96-well plates were used and activity was measured using a TECAN infinite M1000 pro plate reader (λex 360 nm, λem 460 nm, reading interval, 30 s; assay time course, 5-30 min).

SMILES | affinity for trypsin (in words) [1] | KD (nM) Trypsin Acyclic ([1]; Table 8, acyclic form) | KD (nM) Trypsin Cyclic ([1]; Table 8, cyclic form) | Ki [2] [nM]
CC[C@H](C)[C@@H]1NC(=O)[C@@H]2CSSC[C@H](NC(=O)[C@H](CCCNC(=N)N)NC(=O)CNC(=O)CNC(=O)[C@@H](N)CC(=O)O)C(=O)N[C@@H](CS)C(=O)NCC(=O)NCC(=O)N[C@@H](Cc3ccc(O)cc3)C(=O)N[C@@H](CC(C)C)C(=O)N[C@@H](C(C)C)C(=O)N[C@H]3CSSC[C@H](NC1=O)C(=O)N[C@@H](C(C)C)C(=O)N[C@@H](Cc1ccccc1)C(=O)N[C@@H](CCCCN)C(=O)N[C@@H](CCCCN)C(=O)N[C@@H](Cc1c[nH]cn1)C(=O)N[C@H](C(=O)NCC(=O)N[C@@H](CO)C(=O)NCC(=O)N[C@@H](CO)C(=O)O)CSSC[C@H](NC(=O)[C@H](CC(=O)O)NC(=O)[C@H](CO)NC(=O)[C@H](CC(=O)O)NC(=O)[C@H](CCCNC(=N)N)NC(=O)[C@H](CCCNC(=N)N)NC3=O)C(=O)N1CCC[C@H]1C(=O)NCC(=O)N[C@@H](C)C(=O)N2 [MCoFx5 acyclic] (H-DGGRCCGGYLVCRRDSDCPGACICVFKKHCGSGS-OH; disulfide 5-22, 12-24, 18-30) | Neither aMCoFx5 nor cMCoFx5 showed detectable affinity for trypsin | No binding | – | –
CC[C@H](C)[C@@H]1NC(=O)[C@@H]2CSSC[C@@H]3NC(=O)[C@H](CCCNC(=N)N)NC(=O)CNC(=O)CNC(=O)[C@H](CC(=O)O)NC(=O)[C@H](CO)NC(=O)CNC(=O)[C@H](CO)NC(=O)CNC(=O)[C@@H]4CSSC[C@H](NC(=O)[C@H](CC(=O)O)NC(=O)[C@H](CO)NC(=O)[C@H](CC(=O)O)NC(=O)[C@H](CCCNC(=N)N)NC(=O)[C@H](CCCNC(=N)N)NC(=O)[C@H](CSSC[C@H](NC1=O)C(=O)N[C@@H](C(C)C)C(=O)N[C@@H](Cc1ccccc1)C(=O)N[C@@H](CCCCN)C(=O)N[C@@H](CCCCN)C(=O)N[C@@H](Cc1c[nH]cn1)C(=O)N4)NC(=O)[C@H](C(C)C)NC(=O)[C@H](CC(C)C)NC(=O)[C@H](Cc1ccc(O)cc1)NC(=O)CNC(=O)CNC(=O)[C@H](CS)NC3=O)C(=O)N1CCC[C@H]1C(=O)NCC(=O)N[C@@H](C)C(=O)N2 [MCoFx5 cyclic] (cyclo(DGGRCCGGYLVCRRDSDCPGACICVFKKHCGSGS); disulfide 5-22, 12-24, 18-30) | Neither aMCoFx5 nor cMCoFx5 showed detectable affinity for trypsin | – | No binding | –
CC[C@H](C)[C@@H]1NC(=O)[C@H](CCCNC(=N)N)NC(=O)[C@@H]2CCCN2C(=O)[C@@H](NC(=O)[C@@H](NC(=O)[C@@H](N)CCCNC(=N)N)[C@@H](C)CC)CSSC[C@@H]2NC(=O)[C@H](C)NC(=O)CNC(=O)[C@@H]3CCCN3C(=O)[C@@H]3CSSC[C@@H](C(=O)NCC(=O)O)NC(=O)[C@H](Cc4ccccc4)NC(=O)[C@H](CCCNC(=N)N)NC(=O)[C@H]([C@@H](C)O)NC(=O)[C@H](C)NC(=O)[C@H](CCCNC(=N)N)NC(=O)[C@H](CSSC[C@H](NC(=O)[C@H](CC(C)C)NC(=O)[C@H](CCCNC(=N)N)NC(=O)CNC1=O)C(=O)N[C@@H](CCCNC(=N)N)C(=O)N[C@@H](CCCNC(=N)N)C(=O)N[C@@H](CC(=O)O)C(=O)N[C@@H](CO)C(=O)N[C@@H](CC(=O)O)C(=O)N3)NC(=O)[C@H]([C@@H](C)CC)NC2=O [SEQ ID NO: 84] (H-RICPRIGRLCRRDSDCPGACICRATRFCG-OH; disulfide 3-20, 10-22, 16-28) | – | – | – | 1.4
